These results are taken from patent US4132723A, “Substituted phenyl- or cyclohex-1-en-1-yl-3,7-demethyl-nona-2,4,6-trienoic acids and derivatives thereof” (Hoffmann-La Roche Inc., priority 1973, dated 1979).

Structures are written as SMILES.

In data set [1] the test system is papillomas. Kind of data set: papilloma test (tumors induced with dimethyl-benzanthracene and croton oil). Format: in vivo. Particulars: mice, intraperitoneal, 400 mg/kg/week, within 2 weeks. The procedure: The polyene compounds of formula I are useful in the topical and systemic prophylaxis and treatment of benign and malignant neoplasias and premalignant lesions. The tumor-inhibiting activity of the polyene compounds of the invention is significant. […] The diameter of such papillomas in mice decreased by 54% within 2 weeks upon the intraperitoneal administration of 3,7-dimethyl-9-(4-methoxy-2,3,6-trimethyl-phenyl)-nona-2,4,6-trien-1-oic acid at a dosage of 400 mg/kg/week.

Data set [2] is described as follows: acute toxicity in mice after intraperitoneal administration in rape oil. Particulars: mouse, in vivo, ip.

As usually defined, the LD50 is the dose at which mortality reaches 50%. Regarding `COc1cc(C)c(CC/C(C)=C/C=C/C(C)=C/C(=O)O)c(C)c1C` [3,7-dimethyl-9-(4-methoxy-2,3,6-trimethyl-phenyl)-nona-2,4,6-trien-1-oic acid], the “decrease in diameter of papillomas” value in data set [1] stood at 54%. In data set [2], this molecule showed an LD50 of 1400 mg/kg, an LD50 at 24 h of over 4000 mg/kg, a median lethal dose (LD50) at 240 h of 1400 mg/kg and an LD50 at 480 h of 1400 mg/kg.
